Laboratory results from patent US5739146A, “Substituted cyclo or bicycloalkylamides of (8β)-6-(substituted) ergolines” (Eli Lilly and Company, priority 1995, dated 1998).
Structures can show the parent of a compound that is named as a salt. Where two headings read alike, the source gives them in different places.

Legend:
5HT1B receptor = target: T1, 5HT1B receptor (Rattus norvegicus, UniProt P28564); experiment: Inhibition of 3H-serotonin binding to 5HT1B receptor; parameters: species or system male Sprague-Dawley rats
T1 construct: membranes isolated from bovine choroid plexus (for 5HT1.sbsb.c) or rat brain; from tissue
T1 sequence (P28564 whole entry): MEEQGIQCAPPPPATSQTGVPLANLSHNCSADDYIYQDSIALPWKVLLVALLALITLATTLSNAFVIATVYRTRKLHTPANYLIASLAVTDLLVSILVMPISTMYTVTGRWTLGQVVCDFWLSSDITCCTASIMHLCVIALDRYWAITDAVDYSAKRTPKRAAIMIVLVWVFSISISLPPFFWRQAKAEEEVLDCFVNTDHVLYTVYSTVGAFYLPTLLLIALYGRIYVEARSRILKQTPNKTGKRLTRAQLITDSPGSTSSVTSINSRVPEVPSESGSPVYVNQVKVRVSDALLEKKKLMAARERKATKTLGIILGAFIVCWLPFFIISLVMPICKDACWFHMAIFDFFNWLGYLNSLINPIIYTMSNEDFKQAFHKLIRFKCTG
Method: (§1) Radioactivity was measured with a liquid scintillation spectrometer.

5HT1A receptor = target: T2, 5HT1A receptor (Rattus norvegicus, UniProt P19327); experiment: Inhibition of 3H-8-hydroxy-2-(di-n-propylamino)tetralin binding to 5HT1A receptor; parameters: species or system male Sprague-Dawley rats
T2 construct: membranes isolated from bovine choroid plexus (for 5HT1.sbsb.c) or rat brain; from tissue
T2 sequence (P19327 1-422): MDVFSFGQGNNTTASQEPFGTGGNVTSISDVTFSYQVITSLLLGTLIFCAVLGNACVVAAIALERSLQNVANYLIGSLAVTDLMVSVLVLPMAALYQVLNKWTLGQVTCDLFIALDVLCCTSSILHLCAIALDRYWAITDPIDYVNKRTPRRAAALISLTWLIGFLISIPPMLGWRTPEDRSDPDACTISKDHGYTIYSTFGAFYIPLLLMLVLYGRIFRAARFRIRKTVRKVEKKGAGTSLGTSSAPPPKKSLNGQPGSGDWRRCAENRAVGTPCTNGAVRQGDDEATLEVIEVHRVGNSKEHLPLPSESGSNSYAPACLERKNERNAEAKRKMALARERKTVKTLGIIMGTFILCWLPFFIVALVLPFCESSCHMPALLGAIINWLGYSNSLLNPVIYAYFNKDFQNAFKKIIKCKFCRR
Method: as §1

5HT1C receptor = target: T3, 5HT1C receptor (Bos taurus, UniProt A0AAA9SBU1); experiment: Inhibition of 3H-mesulergine binding to 5HT1C receptor
T3 sequence (A0AAA9SBU1 33-457): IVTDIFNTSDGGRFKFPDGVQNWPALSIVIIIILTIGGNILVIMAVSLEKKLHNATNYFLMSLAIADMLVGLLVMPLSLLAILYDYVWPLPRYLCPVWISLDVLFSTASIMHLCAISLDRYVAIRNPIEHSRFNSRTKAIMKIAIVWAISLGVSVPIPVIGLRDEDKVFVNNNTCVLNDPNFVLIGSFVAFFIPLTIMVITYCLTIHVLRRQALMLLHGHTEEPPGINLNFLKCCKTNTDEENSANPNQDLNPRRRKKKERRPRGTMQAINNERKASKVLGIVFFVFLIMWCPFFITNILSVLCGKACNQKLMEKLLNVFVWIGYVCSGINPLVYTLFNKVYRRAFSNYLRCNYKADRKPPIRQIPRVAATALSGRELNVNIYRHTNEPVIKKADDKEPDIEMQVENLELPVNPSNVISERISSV
Method: as §1

5HT2 receptor = 5HT2 receptor (Rattus norvegicus, UniProt P14842); experiment: biochemical
Chain of 5HT2 receptor (P14842 whole entry): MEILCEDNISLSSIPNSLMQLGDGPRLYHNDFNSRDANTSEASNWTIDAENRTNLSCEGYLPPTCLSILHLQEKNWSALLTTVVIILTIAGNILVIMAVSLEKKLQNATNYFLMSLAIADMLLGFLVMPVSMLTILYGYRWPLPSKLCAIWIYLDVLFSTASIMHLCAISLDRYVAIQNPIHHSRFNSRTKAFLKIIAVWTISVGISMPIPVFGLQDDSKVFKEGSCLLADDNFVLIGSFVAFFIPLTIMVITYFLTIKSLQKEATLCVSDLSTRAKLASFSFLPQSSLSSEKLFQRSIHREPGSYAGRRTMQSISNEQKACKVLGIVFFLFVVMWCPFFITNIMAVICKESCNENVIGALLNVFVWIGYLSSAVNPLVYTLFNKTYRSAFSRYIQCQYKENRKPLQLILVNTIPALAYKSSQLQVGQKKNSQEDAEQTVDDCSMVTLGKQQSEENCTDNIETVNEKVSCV
Method: Binding was terminated by filtering samples under reduced pressure through glass fiber (GFB) filters. […] Radioactivity was measured with a liquid scintillation spectrometer.

5HT1D receptor = experiment: Inhibition of 3H-serotonin binding to 5HT1D receptor; parameters: species or system male Sprague-Dawley rats; settings: rat brain membranes, 25 °C, 30 min, pH 7.4, read-out: Inhibition of Radioligand Binding to 5HT Receptor 1D (IC50)
Method: as §1

SMILES | IC50 (5HT1B receptor; rat brain membranes, 3H-serotonin, 25 °C, 30 min, pH 7.4, read-out: Inhibition of Radioligand Binding to 5HT Receptor 1B (IC50)) | IC50 (5HT1A receptor; rat brain membranes, 3H-8-hydroxy-2-(di-n-propylamino)tetralin, 25 °C, 30 min, pH 7.4, read-out: Inhibition of Radioligand Binding to 5HT Receptor 1A (IC50)) | IC50 (5HT1C receptor; read-out: Inhibition of Radioligand Binding to 5HT Receptor 1C (IC50); bovine choroid plexus membranes; 2 nM 3H-mesulergine; 25 °C, 30 min, pH 7.4) | IC50 (5HT2 receptor) | IC50 (5HT1D receptor) | IC50 (5HT1B receptor) | IC50 (5HT1A receptor) | IC50 (5HT1C receptor; bovine choroid plexus membranes; 2 nM 3H-mesulergine; 25 °C, 30 min, pH 7.4; read-out: Inhibition of Radioligand Binding to 5HT Receptor 1C (IC50))
CC(=O)N[C@H]1CC[C@H](NC(=O)[C@@H]2C[C@@H]3c4cccc5c4c(cn5C(C)C)C[C@H]3N(C)C2)CC1 (relative stereo) [Example 1, (8β)-N-(trans-4-acetamidocyclohexyl)-1-isopropyl-6-methylergoline-8-carboxamide] | > 1000 nM | 2310 nM | 18 nM | 31 nM | 198 nM |  |  | 
CC(C)n1cc2c3c(cccc31)[C@H]1C[C@@H](C(=O)N[C@H]3CC[C@H](NS(C)(=O)=O)CC3)CN(C)[C@@H]1C2 (relative stereo) [Example 2, (8β)-N-(trans-4-methylsulfonamidocyclohexyl)-1-isopropyl-6-methylergoline-8-carboxamide maleate] |  |  |  | 23 nM | 276 nM | 489 nM | 2650 nM | 22 nM
